Values quoted from earlier work, collected in article PMC2946453 (Journal of pharmaceutical and biomedical analysis, 2010).
Read-outs that look alike come from different tables or passages of the source.

How the values were obtained:
COX-1 [1] = conditions: read-out: IC50 COX-1; form of COX not mentioned
COX-2 = conditions: read-out: IC50 COX-2; form of COX not mentioned
ovine COX-1 = target: T1, ovine COX-1 (Ovis aries, UniProt P05979); conditions: read-out: Km ovine COX-1; radiolabeled arachidonic acid
T1 sequence (P05979 25-600): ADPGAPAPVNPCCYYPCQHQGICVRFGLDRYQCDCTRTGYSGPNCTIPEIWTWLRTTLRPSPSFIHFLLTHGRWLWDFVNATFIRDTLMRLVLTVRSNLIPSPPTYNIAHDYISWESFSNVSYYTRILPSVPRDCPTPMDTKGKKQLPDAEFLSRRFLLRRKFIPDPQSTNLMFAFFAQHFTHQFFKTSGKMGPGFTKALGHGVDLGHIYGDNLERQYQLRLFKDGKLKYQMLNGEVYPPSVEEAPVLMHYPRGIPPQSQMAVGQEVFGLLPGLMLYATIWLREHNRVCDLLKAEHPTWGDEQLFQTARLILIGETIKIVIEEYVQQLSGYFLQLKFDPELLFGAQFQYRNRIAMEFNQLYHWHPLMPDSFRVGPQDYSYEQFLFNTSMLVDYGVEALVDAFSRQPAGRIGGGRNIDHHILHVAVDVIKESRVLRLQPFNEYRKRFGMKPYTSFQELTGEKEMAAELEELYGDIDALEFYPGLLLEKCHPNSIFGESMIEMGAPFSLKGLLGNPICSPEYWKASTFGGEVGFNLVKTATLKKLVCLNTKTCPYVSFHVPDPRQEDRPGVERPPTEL

human COX-2 = conditions: read-out: IC50 COX-2
COX-1 [2] = conditions: read-out: IC50 COX-1; bovine aortic coronary endothelial cells

Oc1ccc(/C=C/c2cc(O)cc(O)c2)cc1 [Resveratrol]
IC50 (COX-1 [1]): 830 ± 440 nM
IC50 (COX-2): 990 ± 400 nM

CCCCC/C=C\C/C=C\C/C=C\C/C=C\CCCC(=O)O [arachidonic acid]
Km (ovine COX-1): 3.7 ± 0.5 µM

O=C(O)Cc1ccccc1Nc1c(Cl)cccc1Cl [Diclofenac]
IC50 (COX-1 [2]): […]
